# Reference: patent US20110039873A1, “SUBSTITUTED PYRAZOLO[1,5-a] PYRIDINE COMPOUNDS HAVING MULTI-TARGET ACTIVITY” (priority 2009, published 2011)
# Like-named read-outs stand apart in the source and are kept apart here.
# What was measured:
# [1] = molecular target: T1, recombinant full length human JNK3 enzyme (Homo sapiens, UniProt P53779); test: JNK 3 inhibition assay (ATP depletion, luciferase); format: biochemical; conditions: for IC50: 10 uM ATP, ATF2 substrate; for JNK-3 inhibition (in words): see Table 2
# T1 construct: recombinant full length human JNK2 or JNK3 enzyme; purchased Upstate; host or cells: Sf21 cells
# Method: In a 96-well plate, recombinant full length human JNK2 or JNK3 enzyme (40 ng) expressed in Sf21 cells (Upstate) was incubated with the substrate ATF2 (3 uM) for 1 hour in the presence of 10 uM ATP. […] The ATP levels were quantified using luciferase with luminescence read on a Victor Light 1420 luminometer. IC50 calculations were plotted using a nonlinear regression curve fit.
# [2] = molecular target: T2, recombinant human phosphodiesterase 10A1 enzyme (Homo sapiens, UniProt Q9Y233); test: PDE10 inhibition assay (PDELight); format: biochemical; conditions: 1 uM cAMP; read-out: PDE 10 Inhibition (IC50 in μM)
# T2 construct: purchased BPS Biosciences; host or cells: Baculovirus infected Sf9 cells
# Method: In a 96-well plate, recombinant human phosphodiesterase 10A1 enzyme (10 U/well) expressed in Baculovirus infected Sf9 cells (BPS Biosciences) was combined with 1 uM cAMP substrate (Sigma). […] Using a PDELight® kit (Cambrex), the amount of AMP produced in the reaction from the hydrolysis of cAMP was quantified using PDELight AMP Detection Reagent which converts the AMP directly to ATP. The assay uses luciferase, which catalyses the formation of light from the newly formed ATP and luciferin. The luminescence was read on a Victor Light 1420 luminometer. IC50 calculations were plotted using a nonlinear regression curve fit.
# [3] = molecular target: T3, catalytic domain of phosphodiesterase 4B enzyme cloned from human brain (Homo sapiens, UniProt Q07343); test: PDE4 inhibition assay (PDELight); format: biochemical; conditions: for IC50: 5 uM cAMP, read-out: PDE 4 Inhibition (IC50 in μM)
# T3 construct: the catalytic domain of phosphodiesterase 4B enzyme; purchased Scottish Biomedical
# Method: In a 96-well plate, the catalytic domain of phosphodiesterase 4B enzyme (40 mU/well) cloned from human brain (Scottish Biomedical) was combined with 5 uM cAMP substrate (Sigma). […] Using a PDELight® kit (Cambrex), the amount of AMP produced in the reaction from the hydrolysis of cAMP was quantified using PDELight AMP Detection Reagent which converts the AMP directly to ATP. The assay uses luciferase, which catalyses the formation of light from the newly formed ATP and luciferin. […] IC50 calculations were plotted using a nonlinear regression curve fit.
# [4] = tested on: rat chronic constriction injury (CCI) model of neuropathic pain; test: Rat chronic constriction injury (CCI) model of neuropathic pain; format: in vivo; conditions: IP, dose not given; 50% paw withdrawal threshold, von Frey
# Method: To induce allodynia, male Sprague-Dawley rats underwent chronic constriction injury (CCI) to the sciatic nerve as described by Bennett and Xie, Pain 1988; 33(1):87-107. The plantar surface of the hind paws was stimulated with von Frey filaments (Stoelting) to induce a withdrawal response by blinded personnel. The bending force of fiber required to induce a 50% withdrawal response was calculated following CCI surgery (pre-dosing baseline). N=5-6 allodynic rats received a single IP or oral administration of test compounds or vehicle. Two hours post-dosing, 50% paw withdrawal threshold was determined again by blinded testers using von Frey filaments. The 50% withdrawal threshold prior to CCI surgery, pre-dosing (10 days post-surgery), and 2 hours post-dosing are plotted.
# For selected compounds multi-day studies were perfumed with pre-determined schedules for dosing and withdrawal threshold assessments.
# [5] = molecular target: T4, recombinant full length human JNK2 enzyme (Homo sapiens, UniProt P45984); test: JNK 2 inhibition assay (ATP depletion, luciferase); format: biochemical
# T4 construct: recombinant full length human JNK2 or JNK3 enzyme; purchased Upstate; host or cells: Sf21 cells
# Method: In a 96-well plate, recombinant full length human JNK2 or JNK3 enzyme (40 ng) expressed in Sf21 cells (Upstate) was incubated with the substrate ATF2 (3 uM) for 1 hour in the presence of 10 uM ATP. […] IC50 calculations were plotted using a nonlinear regression curve fit.
# [6] = tested on: at least one of JNK 3 or JNK 2 and at least one of PDE 10 or PDE 4; test: Dual inhibition (phosphodiesterase and JNK); format: biochemical, human; conditions: IC50 JNK 3 or JNK 2 less than about 5.00 μM and PDE 10 or PDE 4 less than about 20.0 or 30.0 μM
# Method: In a 96-well plate, recombinant full length human JNK2 or JNK3 enzyme (40 ng) expressed in Sf21 cells (Upstate) was incubated with the substrate ATF2 (3 uM) for 1 hour in the presence of 10 uM ATP. The amount of ATP depletion by the JNK enzyme is measured in the presence or absence of test compounds (0-30 uM). The ATP levels were quantified using luciferase with luminescence read on a Victor Light 1420 luminometer. IC50 calculations were plotted using a nonlinear regression curve fit.
# In a 96-well plate, the catalytic domain of phosphodiesterase 4B enzyme (40 mU/well) cloned from human brain (Scottish Biomedical) was combined with 5 uM cAMP substrate (Sigma). Test compounds (0-30 uM) or vehicle (0.5% DMSO) were added to the enzyme/substrate and incubated 1 hour. Using a PDELight® kit (Cambrex), the amount of AMP produced in the reaction from the hydrolysis of cAMP was quantified using PDELight AMP Detection Reagent which converts the AMP directly to ATP. The assay uses luciferase, which catalyses the formation of light from the newly formed ATP and luciferin. The luminescence was read on a Victor Light 1420 luminometer. IC50 calculations were plotted using a nonlinear regression curve fit.
# In a 96-well plate, recombinant human phosphodiesterase 10A1 enzyme (10 U/well) expressed in Baculovirus infected Sf9 cells (BPS Biosciences) was combined with 1 uM cAMP substrate (Sigma). Test compounds (0-30 uM) or vehicle (0.5% DMSO) were added to the enzyme/substrate and incubated 1 hour. Using a PDELight® kit (Cambrex), the amount of AMP produced in the reaction from the hydrolysis of cAMP was quantified using PDELight AMP Detection Reagent which converts the AMP directly to ATP. The assay uses luciferase, which catalyses the formation of light from the newly formed ATP and luciferin. The luminescence was read on a Victor Light 1420 luminometer. IC50 calculations were plotted using a nonlinear regression curve fit.
# [7] = tested on: Mouse BV-2 microglial cells; test: BV-2 glial cell assay (TNF-α and MCP-1 by Luminex); format: cell-based; conditions: Mus musculus, BV-2, LPS and IFN-γ activated, 20 hours
# Method: Mouse BV-2 microglial cells were seeded on 96-well plates at a concentration of 3×10^4 cells/well. Cells were activated with 100 ng/mL LPS and IFN-γ (100 ng/mL) in the presence or absence of test compounds (0-30 uM). Following incubation for 20 hours, cells were spun down and supernatant collected. The supernatant was analyzed via Luminex for the presence of TNF-α and MCP-1.
# [8] = 10 uM ATP, ATF2 substrate, read-out: JNK 2 Inhibition (IC50 in μM)
# [9] = read-out: IC50 value based upon a JNK 2 inhibition assay (range given)
# T3 sequence (Q07343 330-659 limits assumed): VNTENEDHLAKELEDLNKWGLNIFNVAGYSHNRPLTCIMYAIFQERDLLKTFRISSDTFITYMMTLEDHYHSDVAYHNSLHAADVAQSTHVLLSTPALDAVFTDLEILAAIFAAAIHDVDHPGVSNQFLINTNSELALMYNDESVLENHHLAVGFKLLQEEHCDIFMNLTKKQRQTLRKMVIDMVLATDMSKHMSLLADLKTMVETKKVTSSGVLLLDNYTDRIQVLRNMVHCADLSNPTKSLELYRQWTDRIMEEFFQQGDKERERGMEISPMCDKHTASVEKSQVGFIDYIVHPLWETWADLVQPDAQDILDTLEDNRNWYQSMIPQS
# T4 sequence (P45984 whole entry): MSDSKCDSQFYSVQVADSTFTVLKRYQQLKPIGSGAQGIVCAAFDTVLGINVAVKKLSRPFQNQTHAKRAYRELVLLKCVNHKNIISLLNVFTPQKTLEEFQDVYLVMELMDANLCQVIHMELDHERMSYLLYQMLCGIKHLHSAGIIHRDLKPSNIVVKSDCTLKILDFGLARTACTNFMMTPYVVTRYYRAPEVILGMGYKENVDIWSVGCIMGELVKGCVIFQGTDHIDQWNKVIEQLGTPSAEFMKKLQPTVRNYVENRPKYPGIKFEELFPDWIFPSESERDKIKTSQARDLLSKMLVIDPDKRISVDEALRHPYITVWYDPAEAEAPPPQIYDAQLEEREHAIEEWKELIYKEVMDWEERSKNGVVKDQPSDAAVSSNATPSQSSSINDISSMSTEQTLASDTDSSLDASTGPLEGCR
# T1 sequence (P53779 whole entry): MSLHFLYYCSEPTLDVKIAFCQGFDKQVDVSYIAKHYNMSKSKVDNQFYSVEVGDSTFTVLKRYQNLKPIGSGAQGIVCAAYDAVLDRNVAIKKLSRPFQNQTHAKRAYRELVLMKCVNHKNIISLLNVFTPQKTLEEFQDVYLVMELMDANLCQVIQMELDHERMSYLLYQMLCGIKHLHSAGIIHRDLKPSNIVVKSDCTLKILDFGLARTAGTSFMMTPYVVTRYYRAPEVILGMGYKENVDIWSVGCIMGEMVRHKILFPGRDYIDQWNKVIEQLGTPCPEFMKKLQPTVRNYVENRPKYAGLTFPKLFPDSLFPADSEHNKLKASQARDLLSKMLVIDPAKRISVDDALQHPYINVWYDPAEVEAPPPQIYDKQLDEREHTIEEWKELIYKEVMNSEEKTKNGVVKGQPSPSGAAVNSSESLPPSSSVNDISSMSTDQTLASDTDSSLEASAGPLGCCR
# T2 sequence (Q9Y233 1-779 isoform Q9Y233-1): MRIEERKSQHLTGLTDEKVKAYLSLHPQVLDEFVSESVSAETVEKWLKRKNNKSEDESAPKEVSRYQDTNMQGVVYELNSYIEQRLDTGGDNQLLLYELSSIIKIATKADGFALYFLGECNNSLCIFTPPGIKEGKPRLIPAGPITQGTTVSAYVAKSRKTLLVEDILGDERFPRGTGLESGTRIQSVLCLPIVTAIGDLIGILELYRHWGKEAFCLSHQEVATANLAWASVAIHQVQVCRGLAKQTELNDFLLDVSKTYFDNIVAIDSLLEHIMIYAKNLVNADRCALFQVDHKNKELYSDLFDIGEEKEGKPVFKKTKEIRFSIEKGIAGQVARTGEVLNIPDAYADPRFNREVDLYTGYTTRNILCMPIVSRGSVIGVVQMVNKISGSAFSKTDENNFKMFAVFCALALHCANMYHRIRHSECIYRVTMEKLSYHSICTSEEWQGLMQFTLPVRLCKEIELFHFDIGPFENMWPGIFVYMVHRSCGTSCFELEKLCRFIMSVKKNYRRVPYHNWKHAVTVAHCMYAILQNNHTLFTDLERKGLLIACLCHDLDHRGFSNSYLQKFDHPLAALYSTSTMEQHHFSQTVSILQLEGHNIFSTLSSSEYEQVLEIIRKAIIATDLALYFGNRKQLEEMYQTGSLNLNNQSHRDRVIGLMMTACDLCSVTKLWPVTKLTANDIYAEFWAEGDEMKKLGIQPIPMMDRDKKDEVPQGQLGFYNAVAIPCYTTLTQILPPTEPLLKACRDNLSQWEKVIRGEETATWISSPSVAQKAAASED
smiles,measurement,setting,value
"CC(C)c1nn2ccccc2c1-c1ccnc(NCCCN2CCN(C)CC2)n1 [AV1135, 4-(2-isopropylpyrazolo[1,5-a]pyridin-3-yl)-N-(3-(4-methylpiperazin-1-yl)propyl)pyrimidin-2-amine]",IC50,[1],83 µM
same,IC50,[2],19 µM
same,IC50,[3],> 100 µM
same,IP CCI efficacy (Change in grams),[4],0 grams
"CC(C)c1nn2ccccc2c1-c1ccnc(N)n1 [AV1139, 4-(2-isopropylpyrazolo[1,5-a]pyridin-3-yl)pyrimidin-2-amine]",IC50,[1],18 µM
same,IC50,[2],> 100 µM
same,IC50,[3],> 100 µM
same,IP CCI efficacy (Change in grams),[4],0.21 grams
"CCC(CC)Nc1nccc(-c2c(C(C)C)nn3ccccc23)n1 [AV1155, 4-(2-isopropylpyrazolo[1,5-a]pyridin-3-yl)-N-(pentan-3-yl)pyrimidin-2-amine]",IC50,[1],27 µM
same,IC50,[2],42 µM
same,PDE-4 inhibition (in words),[3],particularly effective
same,IC50,[3],5.9 µM
same,IP CCI efficacy (Change in grams),[4],0.67 grams
"CC(C)c1nn2ccccc2c1-c1ccnc(NC2CCNC2)n1 (stereo not shown) [AV1159, 4-(2-isopropylpyrazolo[1,5-a]pyridin-3-yl)-N-(pyrrolidin-3-yl)pyrimidin-2-amine]",IP CCI efficacy (Change in grams),[4],0 grams
"CC(C)CNc1nccc(-c2cnn3ccccc23)n1 [AV1167, N-isobutyl-4-(pyrazolo[1,5-a]pyridin-3-yl)pyrimidin-2-amine]",IC50,[1],0.7 µM
same,JNK-3 inhibition (in words),[1],particularly effective
same,IC50,[5]; [8],1.5 µM
same,IC50,[5]; [9],0.01 to 2 µM
same,IC50,[2],37 µM
same,IC50,[3],13 µM
same,dual inhibition (phosphodiesterase and JNK),[6],effective dual inhibitors
"CCCCc1nn2ccccc2c1-c1ccnc(NC(C)C)n1 [AV1174, 4-(2-butylpyrazolo[1,5-a]pyridin-3-yl)-N-isopropylpyrimidin-2-amine]",IC50,[1],1.1 µM
same,JNK-3 inhibition (in words),[1],particularly effective
same,IC50,[5]; [8],1.2 µM
same,IC50,[5]; [9],0.01 to 2 µM
same,IC50,[2],31 µM
same,PDE-4 inhibition (in words),[3],particularly effective
same,IC50,[3],7.9 µM
same,dual inhibition (phosphodiesterase and JNK),[6],effective dual inhibitors
"COCc1nn2ccccc2c1-c1ccnc(NC(C)C)n1 [AV1175, N-isopropyl-4-(2-(methoxymethyl)pyrazolo[1,5-a]pyridin-3-yl)pyrimidin-2-amine]",IC50,[1],1.2 µM
same,JNK-3 inhibition (in words),[1],particularly effective
same,IC50,[5]; [8],4.5 µM
same,IC50,[2],> 100 µM
same,PDE-4 inhibition (in words),[3],particularly effective
same,IC50,[3],8.6 µM
same,dual inhibition (phosphodiesterase and JNK),[6],effective dual inhibitors
"Cc1nn2ccccc2c1-c1ccnc(NC2CCCC2)n1 [AV1182, N-cyclopentyl-4-(2-methylpyrazolo[1,5-a]pyridin-3-yl)pyrimidin-2-amine]",IC50,[1],0.9 µM
same,JNK-3 inhibition (in words),[1],particularly effective
same,IC50,[2],> 100 µM
same,PDE-4 inhibition (in words),[3],particularly effective
same,IC50,[3],5.7 µM
same,dual inhibition (phosphodiesterase and JNK),[6],effective dual inhibitors
"CC(C)c1nn2ccccc2c1-c1cnc(N)nc1 [AV1203, 5-(-2-isopropylpyrazolo[1,5-a]pyridin-3-yl)pyrimidin-2-amine]",IC50,[1],> 10 µM
same,IC50,[5]; [8],> 100 µM
same,IC50,[2],3.8 µM
same,IC50,[3],9.9 µM
same,EC50,[7]; read-out: MCP-1 BV-2 (EC50 in μM),0.3 µM
same,EC50,[7]; read-out: TNF-a BV-2 (EC50 in μM),0.8 µM
"CC(C)c1nn2ccccc2c1-c1cnc(NC2CCCC2)nc1 [AV1207, N-cyclopentyl-5-(-2-isopropylpyrazolo[1,5-a]pyridin-3-yl)pyrimidin-2-amine]",IC50,[1],> 100 µM
same,IC50,[2],3.2 µM
same,IC50,[3],24 µM
"CC(C)c1nn2ccccc2c1-c1ccnc(N(C)C)c1 [AV1208, 4-(-2-isopropylpyrazolo[1,5-a]pyridin-3-yl)-N,N-dimethylpyridin-2-amine]",IC50,[1],> 100 µM
same,IC50,[2],5.4 µM
same,IC50,[3],3.9 µM
"COc1ccc(Cc2nccc3cc(OC)c(OC)cc23)cc1OC [Papaverine, reference compound]",IP CCI efficacy (Change in grams),[4],1.35 grams
